In patent publication US9982005B2, “Macrolides and methods of their preparation and use” (President and Fellows of Harvard College, priority 2013, dated 2018):
Values after ≈ are worked out from the molar mass of the structure shown. Where two headings read alike, the source gives them in different places.

Legend:
Assay type in all cases: cell-based
[1] = test system: BS1725 B. subtilis ermC; assay: broth dilution MIC, B. subtilis BS1725
Source text: (§1) We have collected MIC data for a total of 50 novel macrolides that this platform has produced against over 21 unique strains of B. subtilis, E. coli, S. aureus, S. pneumoniae, and H. influenzae, including several multidrug-resistant strains, with a special focus on macrolide resistant mechanisms (vide supra). Azithromycin was included as a control macrolide. CLSI standard procedures for broth dilution MIC determination were used. […] These genotypes can be constitutive or inducible. The finding that C4-epi (unnatural) isomers of the “azaketolide” macrolide class have enhanced activities relative to C4 natural isomers is very exciting.

[2] = test system: EC878 E. coli tolC; assay: broth dilution MIC, E. coli EC878
Source text: as §1

[3] = test system: BS1723 B. subtilis BS168 WT wild type; assay: broth dilution MIC, B. subtilis BS1723; conditions: BS1723 B. subtilis BS168 WT wild type
Source text: as §1

[4] = test system: SA101 S. aureus ATCC29213; assay: broth dilution MIC, S. aureus SA101
Source text: as §1

[5] = test system: EC107 E. coli ATCC25922; assay: broth dilution MIC, E. coli EC107
Source text: as §1

[6] = test system: EC882 E. coli imp; assay: broth dilution MIC, E. coli EC882
Source text: as §1

[7] = Bacillus subtilis, BS1725 B. subtilis ermC (+ery)
[8] = Bacillus subtilis, read-out: MIC
[9] = Staphylococcus aureus, ATCC29213, SA101 S. aureus ATCC29213, read-out: MIC
[10] = Escherichia coli, read-out: MIC
[11] = Bacillus subtilis, BS1725 B. subtilis ermC (−ery)

Compound | MIC [1, 7] | MIC ([2]; Escherichia coli) | MIC [3, 8] | MIC [4, 9] | MIC [5, 10] | MIC ([6]; Escherichia coli) | MIC [1, 11] | MIC ([1]; BS1725 B. subtilis ermC (+ery)) | MIC ([1]; BS1725 B. subtilis ermC (−ery)) | MIC [2] | MIC [3] | MIC ([4]; SA101 S. aureus ATCC29213) | MIC [5] | MIC [6]
CC[C@H]1OC(=O)[C@H](C)C(=O)[C@H](C)[C@@H](O[C@@H]2OC(C)CC(N(C)C)C2O)[C@](C)(OC)C[C@@H](C)CN(C(C)=O)[C@H](C)[C@H]2N(CCCCn3cc(-c4nccs4)nn3)C(=O)O[C@]12C (stereo partly drawn) [FSM-20763] | > 32 µg/mL | 4 µg/mL (≈ 4.64 µM) | 16 µg/mL (≈ 18.6 µM) | 16 µg/mL (≈ 18.6 µM) | > 32 µg/mL | 2 µg/mL (≈ 2.32 µM) |  |  |  |  |  |  |  | 
CC[C@H]1OC(=O)[C@H](C)C(=O)[C@H](C)[C@@H](O[C@@H]2OC(C)CC(N(C)C)C2O)[C@](C)(OC)C[C@@H](C)CN(C(C)=O)[C@H](C)[C@H]2N(CCCCn3cc(-c4ccccn4)nn3)C(=O)O[C@]12C (stereo partly drawn) [FSM-20766] | > 32 µg/mL | 4 µg/mL (≈ 4.67 µM) | 32 µg/mL (≈ 37.4 µM) | 16 µg/mL (≈ 18.7 µM) | > 32 µg/mL | 1 µg/mL (≈ 1.17 µM) |  |  |  |  |  |  |  | 
CC[C@H]1OC(=O)[C@H](C)C(=O)C[C@@H](O[C@@H]2OC(C)CC(N(C)C)C2O)[C@@](C)(OC)C[C@@H](C)CN[C@H](C)[C@H]2N(CCCCn3cc(-c4nccs4)nn3)C(=O)O[C@]12C (stereo partly drawn) [FSM-30501] | > 32 µg/mL | > 32 µg/mL | > 32 µg/mL | > 32 µg/mL | > 32 µg/mL | > 32 µg/mL | > 32 µg/mL |  |  |  |  |  |  | 
CC[C@H]1OC(=O)[C@H](C)C(=O)C[C@@H](O[C@@H]2OC(C)CC(N(C)C)C2O)[C@@](C)(OC)C[C@@H](C)CN(C(C)=O)[C@H](C)[C@H]2N(CCCCn3cc(-c4nccs4)nn3)C(=O)O[C@]12C (stereo partly drawn) [FSM-30503] | > 32 µg/mL | > 32 µg/mL | > 32 µg/mL | > 32 µg/mL | > 32 µg/mL | > 32 µg/mL | > 32 µg/mL |  |  |  |  |  |  | 
CC[C@H]1OC(=O)[C@H](C)C(=O)C[C@@H](O[C@@H]2OC(C)CC(N(C)C)C2O)[C@@](C)(OC)C[C@@H](C)CN[C@H](C)[C@H]2N(CCCCn3cc(-c4cccnn4)nn3)C(=O)O[C@]12C (stereo partly drawn) [FSM-30506] | > 32 µg/mL | > 32 µg/mL | > 32 µg/mL | > 32 µg/mL | > 32 µg/mL | > 32 µg/mL | > 32 µg/mL |  |  |  |  |  |  | 
CC[C@H]1OC(=O)[C@H](C)C(=O)C[C@@H](O[C@@H]2OC(C)CC(N(C)C)C2O)[C@@](C)(OC)C[C@@H](C)CN(C(C)=O)[C@H](C)[C@H]2N(CCCCn3cc(-c4cccc(N)c4)nn3)C(=O)O[C@]12C (stereo partly drawn) [FSM-30512] | > 32 µg/mL | > 32 µg/mL | > 32 µg/mL | > 32 µg/mL | > 32 µg/mL | > 32 µg/mL | > 32 µg/mL |  |  |  |  |  |  | 
CC[C@H]1OC(=O)[C@H](C)C(=O)C[C@@H](O[C@@H]2OC(C)CC(N(C)C)C2O)[C@@](C)(OC)C[C@@H](C)CN(C(C)=O)[C@H](C)[C@H]2N(CCCCn3cc(-c4cccnn4)nn3)C(=O)O[C@]12C (stereo partly drawn) [FSM-30513] | > 32 µg/mL | > 32 µg/mL | > 32 µg/mL | > 32 µg/mL | > 32 µg/mL | > 32 µg/mL | > 32 µg/mL |  |  |  |  |  |  | 
CC[C@H]1OC(=O)[C@H](C)C(=O)C[C@@H](O[C@@H]2OC(C)CC(N(C)C)C2O)[C@@](C)(OC)C[C@@H](C)CN(C(C)=O)[C@H](C)[C@H]2N(CCCCn3cc(-c4nc5ccccc5s4)nn3)C(=O)O[C@]12C (stereo partly drawn) [FSM-30514] | > 32 µg/mL | > 32 µg/mL | > 32 µg/mL | > 32 µg/mL | > 32 µg/mL | > 32 µg/mL | > 32 µg/mL |  |  |  |  |  |  | 
CC[C@H]1OC(=O)[C@H](C)C(=O)C[C@@H](O[C@@H]2OC(C)CC(N(C)C)C2O)[C@@](C)(OC)C[C@@H](C)CN(C(C)=O)[C@H](C)[C@H]2N(CCCCn3cc(-c4ccccn4)nn3)C(=O)O[C@]12C (stereo partly drawn) [FSM-30515] | > 32 µg/mL | > 32 µg/mL | > 32 µg/mL | > 32 µg/mL | > 32 µg/mL | > 32 µg/mL | > 32 µg/mL |  |  |  |  |  |  | 
CC[C@H]1OC(=O)[C@H](C)C(=O)C[C@@H](O[C@@H]2OC(C)CC(N(C)C)C2O)[C@@](C)(OC)C[C@@H](C)CN[C@H](C)[C@H]2N(CCCCn3cc(-c4ccccn4)nn3)C(=O)O[C@]12C (stereo partly drawn) [FSM-30517] | > 32 µg/mL | > 32 µg/mL | > 32 µg/mL | > 32 µg/mL | > 32 µg/mL | > 32 µg/mL | > 32 µg/mL |  |  |  |  |  |  | 
spiramycin [reference compound] |  |  |  |  |  |  |  | 16 µg/mL | 2 µg/mL | 16 µg/mL | 2 µg/mL | 8 µg/mL | >32 µg/mL | 1 µg/mL
